This is an account of results in ChEMBL document CHEMBL3507680, “University of Dundee, Gates Library screen for HepG2 cell viability”.

This data set in a line: Human HepG2 cell viability assay in 384 well format. The format is toxicity, cell-based. On the set-up: dose 125 nL, time 70.5 hour; cytotoxicity at 70.5 h: concentration not given beside the values. As to conditions: HepG2 cells, read-out: Inhibition.
As for `CN(C)C(=O)c1ccn(-c2ccc3ccccn23)n1`, the cytotoxicity at 70.5 h is -4.81%.
On to `CCN(C(c1cccnc1)c1cc(C)cc(C)c1)S(C)(=O)=O` (stereo not drawn), for which the cytotoxicity at 70.5 h is -9.96%.
As for `O=C(c1cscn1)N1CCC2(CCN(Cc3nccs3)C2)CC1`, the cytotoxicity at 70.5 h was -12.2%.
As to `Cc1nccn1C1CCCN(C(=O)C2=NN(C)C(=O)CC2)C1` (stereo not drawn), the cytotoxicity at 70.5 h was determined as 9.33%.
In the case of `Cc1nn(C)c(C)c1C1COCCN1C(=O)CSC(C)(C)C` (stereo not drawn), the cytotoxicity at 70.5 h was -18.7%.
In the case of `O=S(=O)(NC[C@H]1OC[C@@H](NCc2cccs2)[C@@H]1O)c1ccccc1`, the cytotoxicity at 70.5 h is -10.7%.
For `COCC1CC2(CCN(CC3CC3)CC2)CN1c1ncccn1` (stereo not drawn), the cytotoxicity at 70.5 h is -3.59%.
With `COCCN1CCN(c2ccc(C)nn2)Cc2ccc(C)nc21`, the cytotoxicity at 70.5 h was -3.87%.
Regarding `O=C(NC1CC1)N1CC[C@H](OCC2CC2)[C@@H]1Cc1cccnc1`, the cytotoxicity at 70.5 h came to 1.68%.
As for `CCOc1ncnc2c1CCN(Cc1csc(C)n1)CC2`, the cytotoxicity at 70.5 h was determined as 18.8%.
For the compound `N#Cc1cccc(CN2CC[C@@H]3[C@@H]2CC(=O)N3Cc2cccnc2)c1`, the cytotoxicity at 70.5 h is -18.9%.
With `Cc1cccc(C(C)CNS(=O)(=O)CCCC#N)c1` (stereo not drawn), the cytotoxicity at 70.5 h is -8.11%.
Consider `O=C(C1CC=CC1)N1CC[C@@H]2O[C@H](COCC3CCOCC3)CC[C@@H]21`, for which the cytotoxicity at 70.5 h is -6.77%.
On to `CCN1CCN(S(=O)(=O)c2ncn(C)c2Cl)CC1`, for which the cytotoxicity at 70.5 h was -8.62%.
Consider `Cc1nc(C)c(CC(=O)Nc2nc(C)c(C)s2)c(=O)[nH]1`, for which the cytotoxicity at 70.5 h was -17.1%.
As to `CN(CCN(C)S(=O)(=O)CC1CCOCC1)c1ccccc1`, the cytotoxicity at 70.5 h was -3.42%.
Take `O=C(Nc1ccccc1)N1CCC2(CC(=O)N(c3ccsc3)C2)C1` (stereo not drawn): the cytotoxicity at 70.5 h is -10%.
With `N#Cc1cccnc1N1CCC(OCc2ccccc2)CC1` the figure was -8.71%; with `COc1cccc(-c2noc(-c3ccc(NCC4CC4)nc3)n2)c1OC`, -2.04%.
As for `CCc1nc2n(n1)CC(NCc1cnn(-c3ccccc3)n1)CC2` (stereo not drawn), the cytotoxicity at 70.5 h is -9.79%.
For the compound `Cc1cccc(C(C)(C)CNc2cn[nH]c(=O)c2Cl)c1`, the cytotoxicity at 70.5 h is 18.4%.
Consider `CN(C)CCN1CCOCC2(CCCN(C(=O)c3cccn3C)C2)C1` (stereo not drawn), for which the cytotoxicity at 70.5 h worked out at 0.0252%.
Turning to `COc1ccc(NC(=O)c2ccc(CN3CC[C@H](O)C3)cc2)c(OC)n1`, the cytotoxicity at 70.5 h was -7.69%.
For `COC(=O)c1sc(C(NC(=O)c2ccccc2)C2CC2)nc1C` (stereo not drawn), the cytotoxicity at 70.5 h was -3.65%.
To `O=C(CC1CCCC1)N1CCn2cc(Cn3cccn3)nc2C1` belongs -11.5%.
In the case of `CCc1ocnc1C(=O)N1CCCC1c1noc(C)n1` (stereo not drawn), the cytotoxicity at 70.5 h is -5.19%.
With `COCCOCCNC(=O)c1ccc(N2CCC(C)=N2)cc1` the figure was -3.96%; with `O=C(c1ccncc1F)N1CCc2ncnc(N3CCOCC3)c2CC1`, -9.98%; with `O=C(c1ccco1)N1CCO[C@@H]2CN(c3ccccn3)CC[C@@H]2C1`, -4.86%.
With `CN(CC(=O)NCC(F)(F)F)C(=O)c1ccc(C(=O)OC(C)(C)C)cc1`, the cytotoxicity at 70.5 h was -0.193%.
Regarding `O=C(NCc1ccccc1)c1nc2c(o1)CN(C(=O)c1cccnc1)C2`, the cytotoxicity at 70.5 h is -9%.
For the compound `Cc1noc(C)c1CN(C)C(=O)C1CCCN1S(N)(=O)=O` (stereo not drawn), the cytotoxicity at 70.5 h came out at 17.7%.
As to `O=C(c1ccnnc1)N1CC[C@H]2C[C@H](c3ccncn3)O[C@@H]2C1`, the cytotoxicity at 70.5 h was 5.3%.
To `COCC1N(S(=O)(=O)c2cn(C)cn2)[C@H]2CC[C@]1(O)CC2` (stereo partly drawn) belongs -7.28%; to `O=C(NC1CCC(N2C(=O)CCC2=O)CC1)c1c[nH]c2ccccc12` (stereo not drawn), 10.8%; to `COc1cnc(CSc2nnc(C)s2)cc1OCC(N)=O`, 15.1%.
With `Cn1nc(C(=O)N(CC(F)(F)F)c2cccc(Cl)c2)ccc1=O`, the cytotoxicity at 70.5 h was found to be 9.92%.
As for `OC1(CN2CCCC2)COCCN(c2ncnc3[nH]ccc23)C1` (stereo not drawn), the cytotoxicity at 70.5 h is -3.06%.
As to `COc1ccc(C(=O)NCc2ccon2)cc1F`, the cytotoxicity at 70.5 h is -5.07%.
With `CCC(C#N)NC(=O)c1sccc1OC` (stereo not drawn) the figure was -10.7%; with `Cc1cc(C)nc(N2CCCC(c3cccc(-n4ccnc4)n3)C2)n1` (stereo not drawn), -5.86%; with `COC(=O)[C@@H](Nc1nc(C2CCCC2)nc2c1cnn2C)[C@@H](C)O`, -11.8%.
On to `CCc1n[nH]c(C2CN(C(=O)c3cc4c(s3)CCCC4)CCO2)n1` (stereo not drawn), for which the cytotoxicity at 70.5 h came out at 4.71%.
For `Cc1c(Cl)cccc1NC(=O)Cn1cc(C(=O)O)ccc1=O`, the cytotoxicity at 70.5 h was -10.5%.
To `CC(=O)N1CCC(Oc2ccc(Cl)cn2)CC1` belongs 0.563%; to `Cc1c(F)cc(C(=O)NCC(F)(F)F)cc1NCC(=O)N(C)C`, 10.3%; to `Cc1cccc(S(=O)(=O)NCC(C)(C)CC(C)O)c1C#N` (stereo not drawn), -6.31%.
As to `COc1ccc(S(=O)(=O)Cc2cc(C)on2)cc1`, the cytotoxicity at 70.5 h is -4.34%.
In the case of `CCN1Cc2nccn2CC(COCc2csc(C)n2)C1` (stereo not drawn), the cytotoxicity at 70.5 h is -3.32%.
On to `CS(=O)(=O)NCCCNC(=O)c1cccc(-n2cccc2)c1`, for which the cytotoxicity at 70.5 h was -1.21%.
On to `O=C(NC1CC1)c1nnn(-c2cccc(C(F)(F)F)c2)c1C1CC1`, for which the cytotoxicity at 70.5 h is -8.39%.
For the compound `Cc1cc(C2CCCN2C(=O)NCc2cccc(F)c2)on1` (stereo not drawn), the cytotoxicity at 70.5 h is -8.57%.
For `Cc1ccc(C2(O)CCN(C(=O)c3sccc3S(N)(=O)=O)CC2)nc1`, the cytotoxicity at 70.5 h was -4.05%.
To `Cn1cnnc1-c1cncc(NCc2ccccc2Br)c1` belongs 13.6%; to `Cc1cc(CC(C)Nc2ncc(C)c(N(C)C)n2)[nH]n1` (stereo not drawn), -1.49%; to `Cn1cc(C2CCCN2C(=O)c2cnc(-c3cccs3)s2)cn1` (stereo not drawn), 22.5%.
`c1cnc(Nc2cncc(C3CCCN(c4cnccn4)C3)n2)nc1` (stereo not drawn): the cytotoxicity at 70.5 h is -5.35%.
With `O=C(c1cnccn1)N1CCc2onc(Cn3cccn3)c2C1` the figure was -6.72%.
Take `O=C(Cc1ccccc1)N1CCC2(CC1)COCCN2CC1CC1`: the cytotoxicity at 70.5 h is -9.82%.
To `O=C(NCCn1ccc(-c2ccncc2)n1)c1ccc2c(c1)OCO2` belongs 1.76%.
Turning to `Cc1cc(C)n(CC2CN(CC(=O)N3CCNC3=O)CCO2)n1` (stereo not drawn), the cytotoxicity at 70.5 h was -1.37%.
With `COCCCNc1c(-c2ccccc2)c(=O)c1=O`, the cytotoxicity at 70.5 h was -8.63%.
For `O=C([C@@H]1CN(Cc2nccs2)C[C@H]2OCC[C@H]21)N1CCOCC1`, the cytotoxicity at 70.5 h was -7.1%.
For `CC(=O)NCC(=O)N1CCN(Cc2ccncc2)c2ncccc2C1`, the cytotoxicity at 70.5 h was 16.8%.
As to `Cc1ccc2oc(CN3CCn4nc(CCC(=O)O)cc4C3)c(C)c2c1`, the cytotoxicity at 70.5 h came out at 32%.
For the compound `Cn1ccnc1CN1CCN(Cc2ccccc2)[C@@H]2CS(=O)(=O)C[C@@H]21`, the cytotoxicity at 70.5 h is -9.92%.
In the case of `CC(C)(C)C(CCO)NC(=O)Nc1ccncc1` (stereo not drawn), the cytotoxicity at 70.5 h is 23.3%.
With `CN(C)C(CNS(=O)(=O)c1cc(F)ccc1F)c1cccn1C` (stereo not drawn) the figure was -11.3%; with `Cc1nn(C)c(C)c1OCC(=O)NCC(O)Cc1ccccc1` (stereo not drawn), 1.56%.
To `CCCc1nc(N2CCSCC2)c2c(n1)c(C)nn2CC` belongs -13.1%; to `CCc1nnc2n1CCN(C(=O)c1cnc3c(cnn3C(C)C)c1)C2`, -8.43%.
As for `O=C(C1CCCN(CCc2ccc3c(c2)CCO3)C1)N1CCCC1` (stereo not drawn), the cytotoxicity at 70.5 h stood at 44.9%.
To `O=C(O)c1cccn1-c1ccc2c(c1)OCCO2` belongs -9.54%.
As for `O=C(O)C1(Cc2ccc(F)cc2F)CCCN(Cc2ccccn2)C1` (stereo not drawn), the cytotoxicity at 70.5 h was -5.82%.
Regarding `Cc1cc(C)n(Cc2cc(C(=O)N3CCCC3c3ccccn3)n[nH]2)n1` (stereo not drawn), the cytotoxicity at 70.5 h was -17.2%.
For the compound `COc1ccc(CN(C)Cc2cccc(C#N)c2)c(OC)c1`, the cytotoxicity at 70.5 h was -3.94%.
With `CCn1ccnc1CN1CCN(C(C)C(=O)NC2CCCC2)CC1` (stereo not drawn), the cytotoxicity at 70.5 h was -4.1%.
`O=C(NC[C@H]1OC[C@@H]2CN(Cc3ccco3)CC[C@@H]21)c1cscn1`: the cytotoxicity at 70.5 h amounted to 0.732%.
As to `CCOc1ccc(C(=O)N2CCCCC2Cn2nc(C)cc2C)cn1` (stereo not drawn), the cytotoxicity at 70.5 h was 21%.
`CC(C)(O)C1CCN(C(=O)Nc2nc(-c3ccccc3)ns2)CC1`: the cytotoxicity at 70.5 h was -4.79%.
`Cc1nc2c(c(C)c1CC(=O)Nc1cccc(C#N)c1)c(=O)[nH]n2C`: the cytotoxicity at 70.5 h is 15.2%.
As to `Cc1cc(OCC(=O)NS(=O)(=O)c2cccnc2)ccc1Cl`, the cytotoxicity at 70.5 h was -2.82%.
In the case of `CC(=O)N1CCN(c2cc(-c3ccccc3)nc3c(C)c(C)nn23)CC1`, the cytotoxicity at 70.5 h was 0.357%.
For the compound `CC(C)CCN1CCCC(Cn2cc(CCO)nn2)C1` (stereo not drawn), the cytotoxicity at 70.5 h is -2.37%.
On to `Cc1cccc(S(=O)(=O)NC(=O)CN(C)Cc2ccccc2)c1`, for which the cytotoxicity at 70.5 h was found to be 1.15%.
As for `COCCNC(=O)c1nn(-c2cccc(C(C)C)c2)cc1O`, the cytotoxicity at 70.5 h is 41.1%.
As to `COCC1CC2(CCN(C(=O)c3cccn3C)CC2)CN1C(C)C` (stereo not drawn), the cytotoxicity at 70.5 h is -0.557%.
Consider `N#Cc1ccc(OCC(O)CN2CCN(c3nccs3)CC2)cc1` (stereo not drawn), for which the cytotoxicity at 70.5 h stood at 13.7%.
As for `CSCCCN1CCc2nc(N(C)C)nc(N3CCC(O)CC3)c2C1`, the cytotoxicity at 70.5 h is -6.06%.
Turning to `CN(C1CCCCC1)S(=O)(=O)N1CCN(Cc2ccco2)CC1`, the cytotoxicity at 70.5 h was -7.86%.
With `CCOC(=O)c1cc(C(C)(O)CCC=C(C)C)on1` (stereo not drawn) the figure was -9.61%; with `Cc1cnn(CC2CCCN2Cc2coc(-c3ccccc3)n2)c1` (stereo not drawn), 13.5%; with `Cc1cccc(CN2C(=O)CCC23CCN(C(=O)c2ccco2)CC3)n1`, 0.736%.
For the compound `CCN1CCc2[nH]cnc2C12CCN(c1ncc(C(=O)O)cc1Cl)CC2`, the cytotoxicity at 70.5 h stood at 3.78%.
With `CN(Cc1nc2ccccc2o1)CC1CCCN1c1cccnn1` (stereo not drawn) the figure was 7.03%; with `Cc1noc(-c2ccc(N3CCN(Cc4ncccc4C)CC3)nc2)n1`, -7.47%.
As to `COCCN1CCOCC12CCN(C(=O)Cc1cccs1)CC2`, the cytotoxicity at 70.5 h was -6.94%.
Take `O=C(NCC1(O)CCCCC1)c1coc(COc2cccc(F)c2)n1`: the cytotoxicity at 70.5 h was found to be 1.09%.
